Counter-ions that a name gives are not always drawn.
How the values were obtained:
[1] = biological target: T1, human β2 adrenergic receptor (Homo sapiens, UniProt P07550); assay: Whole-cell cAMP Flashplate assay using CHO-K1 cells stably expressing human β2 adrenergic receptor; assay type: cell-based; conditions: cAMP production
T1 construct: expressed in transfected cells; host or cells: CHO-K1
Experimental: The β2 adrenergic receptor, which couples to Gs proteins, activates adenylate cyclase upon agonist binding to the receptor. As a result, cAMP is produced in cells. The activation ability of the β2 adrenergic receptor can be measured by measuring the amount of the cAMP with cAMP-Screen System (Applied Biosystems).
CHO-K1 cells expressing the human β2 adrenergic receptor suspended in Ham's F-12 media containing 10% FBS were seeded into 96-well plates at a volume of 100 μL/well. Next day, they were washed with 200 μL PBS(−), to which 80 μL of 0.5 mM IBMX solution (Ham's F-12 media containing 0.05% BSA) was then added, followed by incubation for 20 minutes at 37° C. in the presence of 5% carbon dioxide. 20 μL of 9 concentrations of test compound solutions (0.5 mM IBMX solution containing 1% DMSO) prepared at concentrations in a range of 0.01-1000 nM with 2-fold serial dilution) were added, followed by incubation for 20 minutes at 37° C. in the presence of 5% carbon dioxide. Then, 100 μL of Assay/Lysis Buffer (a reagent that comes with cAMP Screen System) was added. The cells were lysed by pipetting, further incubated for 30 minutes at 37° C., and then frozen at −80° C. After several days, samples, thawed at room temperature, were treated according to the protocol of cAMP Screen System, and then chemiluminescence was measured by EnVision (PerkinElmer, Inc.). The amount of cAMP was calculated from the standard curve for the standard attached to cAMP Screen System.
The concentrations of a test compound at which 50% of its maximal effect is reached (EC50 values) were analyzed by a four-parameter logistic model using XLfit4 (IDBS, Ltd.) for the amounts of cAMP production at different concentrations of the test compounds.

[2] = biological target: T2, human M3 muscarinic receptor (Homo sapiens, UniProt P20309); assay: Inhibitory effect on methacholine-induced calcium influx, FLIPR assay, CHO-K1 cells stably expressing the human M3 muscarinic receptor; assay type: cell-based; conditions: inhibition of calcium influx induced by methacholine
T2 construct: expressed in transfected cells; host or cells: CHO-K1
T2 sequence (P20309 whole entry): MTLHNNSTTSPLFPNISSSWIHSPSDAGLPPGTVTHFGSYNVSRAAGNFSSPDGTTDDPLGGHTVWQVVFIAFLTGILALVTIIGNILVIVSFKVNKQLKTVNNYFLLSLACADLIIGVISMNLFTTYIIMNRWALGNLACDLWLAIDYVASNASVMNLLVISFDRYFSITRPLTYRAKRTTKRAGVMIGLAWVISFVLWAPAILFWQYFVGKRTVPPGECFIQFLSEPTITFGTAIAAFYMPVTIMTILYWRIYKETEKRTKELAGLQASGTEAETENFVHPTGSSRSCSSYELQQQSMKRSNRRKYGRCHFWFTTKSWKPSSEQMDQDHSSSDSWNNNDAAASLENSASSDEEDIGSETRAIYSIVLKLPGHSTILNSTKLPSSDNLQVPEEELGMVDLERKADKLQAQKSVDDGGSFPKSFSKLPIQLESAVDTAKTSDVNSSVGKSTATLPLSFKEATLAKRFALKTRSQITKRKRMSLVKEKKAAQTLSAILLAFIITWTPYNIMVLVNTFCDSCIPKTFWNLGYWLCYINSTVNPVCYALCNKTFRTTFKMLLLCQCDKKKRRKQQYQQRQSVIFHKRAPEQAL
Description: Muscarinic receptor subtypes (M1, M3 and M5 receptors), which couple to Gq proteins, activate the phospholipase C (PLC) pathway upon agonist binding to the receptor. As a result, the activated PLC hydrolyzes phosphatidyl inositol diphosphate (PIP2) to diacyl glycerol (DAG) and […] (IP3), which in turn generates calcium release from intracellular stores, i.e., endoplasmic and sarcoplasmic reticula. By utilizing FLIPR (Molecular Devices, Inc.) assay in which a calcium sensitive dye (Component A) is used that fluoresces when free calcium binds, the increase in intracellular calcium is measured on the basis of the change in the fluorescence intensity.
Methacholine was added to CHO-K1 cells stably expressing the human M3 muscarinic receptor to induce calcium influx and evaluate the inhibitory effect of test compounds. In the experiment, a FLIPR Calcium assay kit (Molecular Devices, Inc.) was used.
CHO-K1 cells stably expressing the human M3 muscarinic receptor suspended in Ham's F-12 media (Invitrogen, Co.) containing 10% fetal bovine serum (FBS) were seeded into 96-well FLIPR plates at a volume of 100 μL/well. Next day, 60 μL/well of Non-wash-dye solution (Hank's buffered salt solution, HBSS, containing 20 mM HEPES and 6.5 mM probenecid) was added to the cells, which were then incubated for an hour at 37° C. in the presence of 5% carbon dioxide. 20 μL of 10 concentrations of test compound solutions (HBSS containing 1% DMSO, 20 mM HEPES, 2.5 mM probenecid and 0.05% bovine serum albumin, BSA) prepared at concentrations in a range of 0.01-1000 nM with 2-fold serial dilution) were added, followed by incubation for 180 seconds. Then, 20 μL of 30 nM methacholine solution (HBSS containing 20 mM HEPES, 2.5 mM probenecid and 0.05% bovine serum albumin, BSA) was added, and fluorescence intensity was traced by the intracellular calcium influx measuring device FLIPR 96 (Molecular Devices, Inc.) for 170 seconds. The difference between the lowest and the highest values of the fluorescence intensity (FI) over the period of the measurement was used as a measured value. The percentages of inhibition by the test compounds were calculated according to the following formula from the measured value of the methacholin-added and test compound non-added sample (FIpositive), the measured value of the methacholin non-added and test compound non-added sample (FInegative), and the measured value of the methacholin-added and test compound-added sample (FItest). (%) Percentage of inhibition by test compound=[(1−(FItest−FInegative)/(FIpositive−FInegative)]×100
The 50% inhibitory concentrations (IC50 values) of test compounds were analyzed by a four-parameter logistic model using XLfit4 (IDBS, Ltd.) for the percentage of the inhibition by different concentrations of test compounds.

T1 sequence (P07550 whole entry): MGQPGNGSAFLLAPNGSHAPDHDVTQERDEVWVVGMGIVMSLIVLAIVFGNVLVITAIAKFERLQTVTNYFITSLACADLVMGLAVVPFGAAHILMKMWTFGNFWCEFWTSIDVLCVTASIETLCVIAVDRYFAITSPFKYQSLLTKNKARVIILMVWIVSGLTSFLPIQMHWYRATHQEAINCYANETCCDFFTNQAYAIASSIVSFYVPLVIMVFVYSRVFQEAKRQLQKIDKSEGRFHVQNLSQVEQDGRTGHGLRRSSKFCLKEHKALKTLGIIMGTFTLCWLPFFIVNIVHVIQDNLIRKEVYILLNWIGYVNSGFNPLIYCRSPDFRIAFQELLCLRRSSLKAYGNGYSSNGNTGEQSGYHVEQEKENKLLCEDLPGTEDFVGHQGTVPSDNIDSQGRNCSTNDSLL

SMILES	EC50 [1] [nM]	IC50 [2] [nM]
Cc1cc(CNC[C@H](O)c2ccc(O)c3[nH]c(=O)ccc23)ccc1NC(=O)CCCc1ccc(-c2ccccc2)c(NC(=O)OC2CC[N+](C)(C)CC2)c1 [Example 22, 4-({[5-(3-{[4-({[(2R)-2-hydroxy-2-(8-hydroxy-2-oxo-1,2-dihydroquinolin-5-yl)ethyl]amino}methyl)-2-methylphenyl]carbamoyl}propyl)-2-phenylphenyl]carbamoyl}oxy)-1,1-dimethylpiperidin-1-ium trifluoroacetate]	2.2	15.8
C[N+]1(C)CCC(OC(=O)Nc2cc(CCCC(=O)Nc3ccc4cc(CNC[C@H](O)c5ccc(O)c6[nH]c(=O)ccc56)ccc4c3)ccc2-c2ccccc2)CC1 [Example 23, 4-({[5-(3-{[6-({[(2R)-2-hydroxy-2-(8-hydroxy-2-oxo-1,2-dihydroquinolin-5-yl)ethyl]amino}methyl)naphthalen-2-yl]carbamoyl}propyl)-2-phenylphenyl]carbamoyl}oxy)-1,1-dimethylpiperidin-1-ium trifluoroacetate]	2.6	34.3
C[N+]1(C)CCC(OC(=O)Nc2cc(CCCC(=O)Nc3ccc(CNC[C@H](O)c4ccc(O)c5[nH]c(=O)ccc45)cn3)ccc2-c2ccccc2)CC1 [Example 24, 4-({[5-(3-{[5-({[(2R)-2-hydroxy-2-(8-hydroxy-2-oxo-1,2-dihydroquinolin-5-yl)ethyl]amino}methyl)pyridin-2-yl]carbamoyl}propyl)-2-phenylphenyl]carbamoyl}oxy)-1,1-dimethylpiperidin-1-ium trifluoroacetate]	6.6	11.7
CCOc1cc(NC(=O)CCCc2ccc(-c3ccccc3)c(NC(=O)OC3CC[N+](C)(C)CC3)c2)c(Cl)cc1CNC[C@H](O)c1ccc(O)c2[nH]c(=O)ccc12 [Example 26, 4-({[5-(3-{[2-chloro-5-ethoxy-4-({[(2R)-2-hydroxy-2-(8-hydroxy-2-oxo-1,2-dihydroquinolin-5-yl)ethyl]amino}methyl)phenyl]carbamoyl}propyl)-2-phenylphenyl]carbamoyl}oxy)-1,1-dimethylpiperidin-1-ium trifluoroacetate]	0.9	23.2
CCOc1cc(NC(=O)CCCc2ccc(-c3ccccc3)c(NC(=O)OC3CC[N+](C)(C)CC3)c2)ccc1CNC[C@H](O)c1ccc(O)c2[nH]c(=O)ccc12 [Example 27, 4-({[5-(3-{[5-ethoxy-4-({[(2R)-2-hydroxy-2-(8-hydroxy-2-oxo-1,2-dihydroquinolin-5-yl)ethyl]amino}methyl)phenyl]carbamoyl}propyl)-2-phenylphenyl]carbamoyl}oxy)-1,1-dimethylpiperidin-1-ium trifluoroacetate]	1.5	16.1
C[N+]1(C)CCC(OC(=O)Nc2cc(CCCC(=O)Nc3ccc(CNC[C@H](O)c4ccc(O)c5[nH]c(=O)ccc45)cc3F)ccc2-c2ccccc2)CC1 [Example 28, 4-({[5-(3-{[2-fluoro-4-({[(2R)-2-hydroxy-2-(8-hydroxy-2-oxo-1,2-dihydroquinolin-5-yl)ethyl]amino}methyl)phenyl]carbamoyl}propyl)-2-phenylphenyl]carbamoyl}oxy)-1,1-dimethylpiperidin-1-ium trifluoroacetate]	0.7	10
C[N+]1(C)CCC(OC(=O)Nc2cc(CCCC(=O)Nc3ccc(CNC[C@H](O)c4ccc(O)c5[nH]c(=O)ccc45)c(Cl)c3)ccc2-c2ccccc2)CC1 [Example 29, 4-({[5-(3-{[3-chloro-4-({[(2R)-2-hydroxy-2-(8-hydroxy-2-oxo-1,2-dihydroquinolin-5-yl)ethyl]amino}methyl)phenyl]carbamoyl}propyl)-2-phenylphenyl]carbamoyl}oxy)-1,1-dimethylpiperidin-1-ium trifluoroacetate]	4.8	13.6
C[N+]1(C)CCC(OC(=O)Nc2cc(CCCC(=O)Nc3ccc(CNC[C@H](O)c4ccc(O)c5[nH]c(=O)ccc45)cc3Br)ccc2-c2ccccc2)CC1 [Example 30, 4-({[5-(3-{[2-bromo-4-({[(2R)-2-hydroxy-2-(8-hydroxy-2-oxo-1,2-dihydroquinolin-5-yl)ethyl]amino}methyl)phenyl]carbamoyl}propyl)-2-phenylphenyl]carbamoyl}oxy)-1,1-dimethylpiperidin-1-ium trifluoroacetate]	0.5	12.9
C[N+]1(C)CCC(OC(=O)Nc2cc(CCCC(=O)Nc3ccc(CNC[C@H](O)c4ccc(O)c5[nH]c(=O)ccc45)c(C(F)(F)F)c3)ccc2-c2ccccc2)CC1 [Example 31, 4-({[5-(3-{[4-({[(2R)-2-hydroxy-2-(8-hydroxy-2-oxo-1,2-dihydroquinolin-5-yl)ethyl]amino}methyl)-3-(trifluoromethyl)phenyl]carbamoyl}propyl)-2-phenylphenyl]carbamoyl}oxy)-1,1-dimethylpiperidin-1-ium trifluoroacetate]	25.1	15.7
C[N+]1(C)CCC(OC(=O)Nc2cc(CCCC(=O)Nc3ccc(CNC[C@H](O)c4ccc(O)c5[nH]c(=O)ccc45)cc3)ccc2-c2ccccc2)CC1 [Example 32, 4-({[5-(3-{[4-({[(2R)-2-hydroxy-2-(8-hydroxy-2-oxo-1,2-dihydroquinolin-5-yl)ethyl]amino}methyl)phenyl]carbamoyl}propyl)-2-phenylphenyl]carbamoyl}oxy)-1,1-dimethylpiperidin-1-ium trifluoroacetate]	8.4	16.1
C[N+]1(C)[C@@H]2C[C@@H](OC(=O)Nc3cc(CCCC(=O)Nc4ccc(CNC[C@H](O)c5ccc(O)c6[nH]c(=O)ccc56)cc4)ccc3-c3ccccc3)C[C@H]1[C@@H]1O[C@@H]12 [Example 33, (1R,2R,4S,5S,7S)-7-({[5-(3-{[4-({[(2R)-2-hydroxy-2-(8-hydroxy-2-oxo-1,2-dihydroquinolin-5-yl)ethyl]amino}methyl)phenyl]carbamoyl}propyl)-2-phenylphenyl]carbamoyl}oxy)-9,9-dimethyl-3-oxa-9-azatricyclo[3.3.1.0^2,4]nonan-9-ium trifluoroacetate]	4.6	22.1
COc1cc(NC(=O)CCCc2ccc(-c3ccccc3)c(NC(=O)O[C@@H]3C[C@@H]4[C@H]5O[C@H]5[C@H](C3)[N+]4(C)C)c2)c(Cl)cc1CNC[C@H](O)c1ccc(O)c2[nH]c(=O)ccc12 [Example 34, (1R,2R,4S,5S,7S)-7-({[5-(3-{[2-chloro-4-({[(2R)-2-hydroxy-2-(8-hydroxy-2-oxo-1,2-dihydroquinolin-5-yl)ethyl]amino}methyl)-5-methoxyphenyl]carbamoyl}propyl)-2-phenylphenyl]carbamoyl}oxy)-9,9-dimethyl-3-oxa-9-azatricyclo[3.3.1.0^2,4]nonan-9-ium trifluoroacetate]	1.2	22
